{"source": "paper PMC9534826", "about": "(Journal of Applied Glycoscience, 2022)", "tested_on": "PxXyl43A", "assay": "p-nitrophenol release, absorbance at […] nm", "assay_type": "biochemical, Paenibacillus xylaniclasticus", "settings": "pH 7.0, 50 mM potassium phosphate, 54 °C, 1.5 min, 1.8 to 9.0 mM pNPX"}
{"molecule": "O=[N+]([O-])c1ccc(O[C@@H]2OC[C@@H](O)[C@H](O)[C@H]2O)cc1", "note": "[pNPX]", "values": [{"measurement": "Km", "result": 1200, "unit": "µM"}]}
